Reference: patent EP2604600A1, “Isatin derivatives and their use in therapy” (priority 2011, dated 2013)
In brackets after ≈: the same amount, converted by molar mass.

Experiments:
Test in all cases: microbe, parasite or virus in culture
Assay type in all cases: cell-based
[1] = tested on: ATCC 35827 Kanamycin Resistant; settings: Mycobacterium tuberculosis, ATCC35827, 48 h
[2] = tested on: ATCC 35821 Para-aminosalicylic Resistant; settings: Mycobacterium tuberculosis, ATCC35821, 48 h
[3] = tested on: ATCC 35820 Streptomycin Resistant; settings: Mycobacterium tuberculosis, ATCC35820, 48 h
[4] = tested on: ATCC 35830 Ethionamide Resistant; settings: Mycobacterium tuberculosis, ATCC35830, 48 h
[5] = tested on: ATCC 35822 Isoniazid Resistant; settings: Mycobacterium tuberculosis, ATCC35822, 48 h
[6] = tested on: ATCC 35837 Ethambutol Resistant; settings: Mycobacterium tuberculosis, ATCC35837, 48 h

Row | Structure (SMILES) | MIC [1] [µg/mL] | MIC [2] [µg/mL] | MIC [3] [µg/mL] | MIC [4] [µg/mL] | MIC [5] [µg/mL] | MIC [6] [µg/mL]
1 | O=C1Nc2ccc(Cl)cc2C1=NNC(=O)c1ccncc1 [Compound 3a] | 25 (≈ 83.1 µM) | 25 (≈ 83.1 µM) | 25 (≈ 83.1 µM) | 10 (≈ 33.3 µM) | 10 (≈ 33.3 µM) | 1.25 (≈ 4.16 µM)
2 | O=C1Nc2ccc([N+](=O)[O-])cc2C1=NNC(=O)c1ccncc1 [Compound 3c] | 312 (≈ 1000 µM) | 156 (≈ 501 µM) | 156 (≈ 501 µM) | 0.5 (≈ 1.61 µM) | 10 (≈ 32.1 µM) | 0.156 (≈ 0.501 µM)
3 | O=C1Nc2ccc(OC(F)(F)F)cc2C1=NNC(=O)c1ccc([N+](=O)[O-])o1 [Compound 3e] | 5 (≈ 13 µM) | 0.5 (≈ 1.3 µM) | 25 (≈ 65.1 µM) | 0.5 (≈ 1.3 µM) | 5 (≈ 13 µM) | 2.5 (≈ 6.51 µM)
4 | O=C(NN=C1C(=O)N(Cc2ccccc2)c2ccccc21)c1ccc([N+](=O)[O-])o1 [Compound 3g] | 156 (≈ 400 µM) | 312 (≈ 799 µM) | 78 (≈ 200 µM) | 156 (≈ 400 µM) | 156 (≈ 400 µM) | 0.156 (≈ 0.4 µM)
